# According to patent US6087401A, “Cyclopentenones, process for preparing the same, and the use thereof” (Takara Shuzo Co., Ltd., priority 1996, dated 2000):
# Read-outs that look alike come from different tables or passages of the source.
# Legend:
# HL-60 cells = assay: cancer cell differentiation (Wright-Giemsa stain); assay type: cell-based, human; conditions: control around 10%
# Experimental: (2) To HL-60 cells was added 10^-4 μg/ml of the cyclopentenone and an incubation by the same manner as in Example 15-(1) was conducted for three days. […] The result was that the differentiated cells were around 10% in the control where no cyclopentenone was added while, in the fractions to which the cyclopentenone was added, 50% or more cells were differentiated to monocyte- or to macrophage-like cells.
# The result was that the differentiated cells were around 10% in the control where no cyclopentenone was added while, in the fraction to which 0.005 μg/ml of the cyclopentenone was added, 25% or more cells were differentiated to mature bone marrow cells.
# [1] = test system: Escherichia coli HB101 (ATCC 33694); assay: growth turbidity, microorganism (13); assay type: cell-based; conditions: 8 h, control 222
# Description: (§1) They were testing microorganism (13): Escherichia coli HB101 (ATCC 33694); testing microorganism (14): Salmonella typhimurium LT-2 (ATCC 27106); testing microorganism (15): Pseudomonas aeruginosa (IFO 3080); testing microorganism (16): Staphylococcus aureus 3A (NCTC 8319); testing microorganism (17): Bacillus subtilis (IFO 3034); and testing microorganism (18): Streptococcus mutans (GS5; stored at National Institute of Health).
# (§2) The testing microorganisms were subjected to a seed culture overnight in an L-broth (1% tryptone, 0.5% yeast extract and […]; pH 7.0). The seed culture (5 μl) was inoculated to a medium to which 25-200 μg/ml of cyclopentenone was added to 5 ml of L-both and also to a medium to which nothing was added and a shake incubation was conducted at 37° C. to measure the growth. At the initiation of the incubation and also at eight hours thereafter, turbidity of the culture was measured using a Fuji Digital Turbidimeter (sold from Fuji Kogyo KK; manufactured by Akiyama Denki Seisakusho) under the condition that the adjusted scale was 82.3 and the growth of the tested microorganism was measured from the value (growth turbidity) obtained by deducting the turbidity at the initiation of incubation from that after eight hours. Incidentally, in the case of the testing microorganism (18), a brain heart infusion was used instead of L-broth.
# [2] = test system: Pseudomonas aeruginosa (IFO 3080); assay: growth turbidity, microorganism (15); assay type: cell-based; conditions: 8 h, control 239
# Description: as §1, §2
# [3] = test system: Staphylococcus aureus 3A (NCTC 8319); assay: growth turbidity, microorganism (16); assay type: cell-based; conditions: 8 h, control 243
# Description: as §1, §2
# [4] = test system: Bacillus subtilis (IFO 3034); assay: growth turbidity, microorganism (17); assay type: cell-based; conditions: 8 h, control 267
# Description: as §1, §2
# [5] = test system: Streptococcus mutans (GS5); assay: growth turbidity, microorganism (18); assay type: cell-based; conditions: 8 h, control 140
# Description: as §1, §2
# [6] = test system: Legionella pneumophila (isolated from bathtub water of hot spring); assay type: cell-based; conditions: 12 ppm, common logarithm
# [7] = test system: Helicobacter pylori strains NCTC 11637 (ATCC 43504), 206 and 3401; assay: MIC against Helicobacter pylori strains; assay type: cell-based; conditions: pH 6.0, 37° C., 3-4 days, all strains tested, read-out: MIC (90% or more inhibition)
# Experimental: (4) As to Helicobacter pylori strains, a standard strain NCTC 11637 (ATCC 43504) and clinically isolated strains from human stomach (206 and 3401; both stored at Department of Bacteriology, Hyogo Medical College) were used. Each strain was subjected to a shake incubation at 37° C. under a slightly aerophilic condition using an Aneropack Campiro (manufactured by Mitsubishi Gas Chemical) in a Brucella Broth Medium (manufactured by BBL) containing 7% of horse serum (manufactured by Bio Whittaker). The microorganism in a logarithmic growth phase was diluted with a Brucella Broth and used for the test. A 24-well plate (manufacturedby Falcon) was used for the experiments. The cyclopentenone was charged at the rate of 0.1 ml (1,000 μg)/well, subjected to a two-step dilution using PBS and immobilized by adding 0.9 ml/well of a medium [a Brucella agar medium (pH 6.0) containing 7% of horse serum (manufactured by BBL)]. The Brucella agar medium was previously adjusted to pH 6.0 with HCl and was used for the experiments. Each microorganism was inoculated at the rate of about 10^4 /50 μl/well. […] The amount of a sample (μg/ml) showing 90% or more inhibition was defined as the MIC.
# [8] = test system: Aspergillus fumigatus TIMM 1776; assay: antimicrobial activity to fungi; assay type: cell-based; conditions: high concentrations
# Sarcoma-180 [9] = assay: life-prolonging effect, subcutaneous Sarcoma-180; assay type: in vivo, female mice of ICR strain; conditions: about 80 mg/kg/day in drinking water, 40th day; control two out of eight
# Experimental: (2) Sixteen female mice of ICR strain of six weeks age (body weight: about 26 g) were used. Sarcoma-180 (5.5×10^6 cells/mouse) was subcutaneously injected into abdomen whereupon a control group (8 mice) and a group administered with the cyclopentenone (8 mice) were made.
# The cyclopentenone was diluted with tap water and freely given to the cyclopentenone-administered group to make the dose of the cyclopentenone about 80 mg/kg/day using a water-supplying bottle. Tap water was similarly given to the control group. In both groups, feed was freely given during the course of the experiment.
# Sarcoma-180 [10] = assay: life-prolonging effect, intraperitoneal Sarcoma-180; assay type: in vivo, female mice of ICR strain; conditions: intraperitoneal tumor
# EAC = assay: life-prolonging effect, EAC; assay type: in vivo, female mice of DDY strain; conditions: intraperitoneal tumor
# mice = conditions: oral, 100 mg/kg
# [11] = stability of the cyclopentenone in solution (TLC)
smiles,measurement,setting,value
"O=C1C=CC(O)C1O (stereo not shown) [the cyclopentenone, 4,5-dihydroxy-2-cyclopenten-1-one]",cells differentiated to mature bone marrow cells,"HL-60 cells; 0.005 μg/ml, three or six days",≥ 25%
same,cells differentiated to monocyte- or to macrophage-like cells,"HL-60 cells; 10^-4 μg/ml, three days",≥ 50%
same,Growth Turbidity,[1]; 25 μg/ml,0
same,Growth Turbidity,[1]; 50 μg/ml,0
same,Growth Turbidity,[1]; 100 μg/ml,0
same,Growth Turbidity,[1]; 200 μg/ml,0
same,Growth Turbidity,[2]; 25 μg/ml,2
same,Growth Turbidity,[2]; 50 μg/ml,0
same,Growth Turbidity,[2]; 100 μg/ml,0
same,Growth Turbidity,[2]; 200 μg/ml,0
same,Growth Turbidity,[3]; 25 μg/ml,203
same,Growth Turbidity,[3]; 50 μg/ml,158
same,Growth Turbidity,[3]; 100 μg/ml,0
same,Growth Turbidity,[3]; 200 μg/ml,0
same,Growth Turbidity,[4]; 25 μg/ml,145
same,Growth Turbidity,[4]; 50 μg/ml,9
same,Growth Turbidity,[4]; 100 μg/ml,0
same,Growth Turbidity,[4]; 200 μg/ml,0
same,Growth Turbidity,[5]; 25 μg/ml,133
same,Growth Turbidity,[5]; 50 μg/ml,130
same,Growth Turbidity,[5]; 100 μg/ml,34
same,Growth Turbidity,[5]; 200 μg/ml,6
same,Numbers of Tested Microorganism Cells after Incubation,"[6]; 16 h, 0 ppm 7.4",6.1 log10 CFU/mL
same,Numbers of Tested Microorganism Cells after Incubation,"[6]; 96 h, 0 ppm 8.6",8.6 log10 CFU/mL
same,MIC,[7],32 µg/mL
same,antimicrobial activity,[8],antimicrobial activity at high concentrations
same,numbers of living mice (out of eight),Sarcoma-180 [9],seven
same,increase in life span,Sarcoma-180 [10],148%
same,mean survival days,Sarcoma-180 [10]; control 22.6 days,33.4 days
same,increase in life span,EAC,255%
same,mean survival days,EAC; control 15.8 days,40.3 days
same,toxicity,mice,not show toxicity
same,stability,"[11]; 25 mM in 10 mM tris (pH 10), room temperature, immediately after dissolution",rapid decomposition
same,stability,"[11]; in water, 121° C., 30 minutes",most of the cyclopentenone was left nondecomposed
